Measured values: patent publication US12605423B2, “Peptide inhibitors targeting methyltransfer mechanism of SARS-CoV-2” (United Arab Emirates University, priority 2021, dated 2026)
“Also recorded” adds a separate entry of the source.

What was measured:
IL-6 = type: cell-based; settings: NCIH1792 (H1792) human lung cells, 10 μM peptide, versus PBS control

## CSCC[C@H](NC(=O)[C@H](Cc1ccccc1)NC(=O)CNC(=O)[C@H](CO)NC(=O)CNC(=O)[C@H](CCCNC(=N)N)NC(=O)[C@H](CCCNC(=N)N)NC(=O)[C@H](CCCNC(=N)N)NC(=O)[C@H](CCC(N)=O)NC(=O)[C@H](CCCNC(=N)N)NC(=O)[C@H](CCCNC(=N)N)NC(=O)[C@H](CCCCN)NC(=O)[C@H](CCCCN)NC(=O)[C@H](CCCNC(=N)N)NC(=O)CNC(=O)[C@H](Cc1ccc(O)cc1)NC(C)=O)C(=O)N[C@@H](CC(=O)O)C(=O)N[C@@H](CC(C)C)C(=O)N[C@@H](CCCCN)C(=O)NCC(=O)N[C@@H](CCCCN)C(=O)N[C@@H](Cc1ccc(O)cc1)C(N)=O [Peptide P3, FMDLKGKY]
SARS-CoV-2
  90% Effective Concentration (EC90): 3.3 µM
  EC90: 3.3 µM
IL-6
  IL-6 induction: not P2 nor P3; also recorded: does not stimulate IL-6
